The test deals with T1, SIRT1 (Homo sapiens, UniProt Q96EB6).
T1 sequence (Q96EB6 1-747): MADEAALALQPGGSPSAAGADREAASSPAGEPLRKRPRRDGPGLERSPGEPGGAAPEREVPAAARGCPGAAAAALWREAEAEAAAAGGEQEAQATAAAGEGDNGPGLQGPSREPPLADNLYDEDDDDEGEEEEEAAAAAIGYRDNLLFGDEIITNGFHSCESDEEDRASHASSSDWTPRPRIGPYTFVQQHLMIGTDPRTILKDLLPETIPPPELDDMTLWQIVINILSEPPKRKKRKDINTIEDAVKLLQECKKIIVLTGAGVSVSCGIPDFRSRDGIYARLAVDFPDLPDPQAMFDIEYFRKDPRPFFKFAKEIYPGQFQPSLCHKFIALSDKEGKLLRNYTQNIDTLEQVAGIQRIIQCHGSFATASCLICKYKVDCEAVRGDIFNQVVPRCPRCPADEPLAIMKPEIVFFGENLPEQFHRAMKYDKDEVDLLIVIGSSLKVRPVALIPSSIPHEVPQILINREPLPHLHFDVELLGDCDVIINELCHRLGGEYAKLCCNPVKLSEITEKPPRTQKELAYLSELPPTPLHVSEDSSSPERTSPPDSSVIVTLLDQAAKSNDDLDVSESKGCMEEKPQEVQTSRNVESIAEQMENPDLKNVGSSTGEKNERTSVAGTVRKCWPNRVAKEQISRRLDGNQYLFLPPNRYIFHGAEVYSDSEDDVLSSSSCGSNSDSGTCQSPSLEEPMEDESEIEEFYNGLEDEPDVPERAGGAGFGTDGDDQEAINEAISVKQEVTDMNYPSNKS
Put plainly: Trp mass spectrometry assay of SIRT1 activity. The format is biochemical. To be noted: for Emax: read-out: Trp % Fold Act; for Trp EC1.5 (μM): concentration giving 150% activation of SIRT1. Put shortly: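 Activation readout: EC1.5 (concentration raising activity 50% over control) and percent maximum activation, from mass-spec quantitation of OAADPR or deacetylated Trp peptide. Reaction: 0.5 μM acetylated Trp peptide, 120 μM βNAD+, 10 nM bacterially expressed N-His SIRT1, pH 7.5 HEPES buffer with […], 25 min at 25° C.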

Where [1] appears, read: percent maximum fold activation of SIRT1, Trp peptide substrate.
Where [2] appears, read: Trp assay, percent maximum fold activation.

Like-named read-outs stand apart in the source and are kept apart here.

Consider `O=C(Nc1cccnn1)c1cnn2ccc(N3CCC(C(F)(F)F)C3)nc12` (stereo not shown) [Compound 1014], for which, under setting [1], the Emax was at least 350%.

For `Cc1nc2ccc(N3CC[C@H](N(C)C)C3)nn2c1C(=O)Nc1ccncn1` [Compound 881], the “Trp EC1.5 (μM)” value (Trp assay) is “C (EC1.5>25 μM)”. Under setting [2], the Emax was below 350%.

On to `CN(C)[C@H]1CCN(c2ccc3ncc(C(=O)Nc4ncccn4)n3n2)C1` [Compound 886], for which the “Trp EC1.5 (μM)” value (Trp assay) was “B (EC1.5 1-25 μM)”. For the same compound, the Emax under setting [2] was below 350%.

As for `O=C(Nc1cccnn1)c1cnc2ccc(N3CCCC(C(F)(F)F)C3)nn12` (stereo not shown) [Compound 902], the “Trp EC1.5 (μM)” value (Trp assay) is “A (EC1.5<1 μM)”. Moreover, the Emax under setting [2] was at least 350%.

Consider `Cc1cc(NC(=O)c2c(C)nc3c(OC[C@H](O)CO)cc(-c4ccccc4C(F)(F)F)nn23)nc(C)n1` [Compound 850], for which the “Trp EC1.5 (μM)” value (Trp assay) is “A (EC1.5<1 μM)”. In addition, the Emax under setting [2] was at least 350%.

As to `Cc1cncc(NC(=O)c2c(C)nn3ccc(N4CCC[C@H]4C(F)(F)F)nc23)c1` [Compound 1036], the Emax under setting [1] is at least 350%.

For the compound `O=C(Nc1cncc(F)c1)c1cnn2ccc(N3CCCC3C(F)(F)F)nc12` (stereo not shown) [Compound 1001], under setting [1], the Emax is at least 350%.

For the compound `COc1nccc(NC(=O)c2c(C)nn3ccc(N4CCC[C@@H]4C(F)(F)F)nc23)n1` [Compound 1085], the Emax under setting [1] was at least 350%.

In the case of `COc1nccc(NC(=O)c2cnn3ccc(N4CCC[C@H]4C(F)(F)F)nc23)n1` [Compound 1024], the Emax under setting [1] was at least 350%.

On to `O=C(Nc1ccncc1F)c1cnc2ccc(N3CCCC3)nn12` [Compound 898], for which, for the setting “Trp assay”, the “Trp EC1.5 (μM)” value is given as “C (EC1.5>25 μM)”. Further, the Emax under setting [2] was below 350%.

Consider `O=C(Nc1cccc(-c2cnco2)n1)c1cnn2ccc(N3CCC[C@@H]3C(F)(F)F)nc12` [Compound 1081], for which the Emax under setting [1] is at least 350%.

Take `O=C(Nc1ccncc1F)c1cnc2ccc(N3CCC(F)(F)C3)nn12` [Compound 903]: for the setting “Trp assay”, the “Trp EC1.5 (μM)” value is listed as “C (EC1.5>25 μM)”. Also, the Emax under setting [2] was below 350%.

In the case of `C[C@H]1CCCN1c1ccc2ncc(C(=O)Nc3cncc(F)c3)n2n1` [Compound 1059], the Emax under setting [1] is below 350%.

`Cc1nc2c(OC[C@H](O)CO)cc(-c3ccccc3C(F)(F)F)nn2c1C(=O)Nc1ccncc1F` [Compound 843]: the “Trp EC1.5 (μM)” value (Trp assay) is “A (EC1.5<1 μM)”. Further, the Emax under setting [2] was at least 350%.

With `Cc1cnc(NC(=O)c2c(C)nc3c(OC[C@H](O)CO)cc(-c4ccccc4C(F)(F)F)nn23)s1` [Compound 861], for the setting “Trp assay”, the “Trp EC1.5 (μM)” value is recorded as “A (EC1.5<1 μM)”. Moreover, under setting [2], the Emax was at least 350%.

Take `C[C@H]1CCCN1c1ccc2ncc(C(=O)Nc3ccccn3)n2n1` [Compound 1053]: under setting [1], the Emax was at least 350%.

For `Cc1nc2ccc(N3CCC[C@H]3C(F)(F)F)nn2c1C(=O)Nc1ccccn1` [Compound 1015], under setting [1], the Emax is at least 350%.

For `Cc1nn2ccc(N3CCC[C@@H]3C(F)(F)F)nc2c1C(=O)Nc1cnccn1` [Compound 1084], the Emax under setting [1] is at least 350%.

As to `Cc1nc2ccc(N3CCC[C@H]3C(F)(F)F)nn2c1C(=O)Nc1cccnc1` [Compound 1016], the Emax under setting [1] was at least 350%.

As to `Cc1cc(NC(=O)c2c(C)nc3c(OC[C@H](O)CO)cc(-c4ccccc4C(F)(F)F)nn23)cc(C)n1` [Compound 860], the “Trp EC1.5 (μM)” value (Trp assay) is “A (EC1.5<1 μM)”. The Emax under setting [2] was at least 350%.

For `O=C(Nc1cnccn1)c1cnn2ccc(N3CCC[C@H]3C(F)(F)F)nc12` [Compound 1031], the Emax under setting [1] is at least 350%.

For the compound `CC1(C)CCN(c2ccc3ncc(C(=O)Nc4ccccn4)n3n2)C1` [Compound 952], the Emax under setting [2] is at least 350%.

`Cc1nc2ccc(N3CCC(F)(F)C3)nn2c1C(=O)Nc1cccnn1` [Compound 1005]: under setting [1], the Emax is at least 350%.

As to `CC1(C)CCN(c2ccc3ncc(C(=O)Nc4ccncn4)n3n2)C1` [Compound 972], the Emax under setting [2] was below 350%.

Consider `O=C(Nc1cccnn1)c1cnc2ccc(N3CCCC3C(F)(F)F)nn12` (stereo not shown) [Compound 968], for which the Emax under setting [2] is at least 350%.

Take `Cc1nn2ccc(N3CCC[C@H]3C(F)(F)F)nc2c1C(=O)Nc1cccnc1` [Compound 1047]: under setting [1], the Emax is at least 350%.

Take `O=C(Nc1ccccn1)c1cnc2ccc(N3CC[C@H](O)C3)nn12` [Compound 981]: the Emax under setting [2] was below 350%.

Take `Cc1cncc(NC(=O)c2cnc3ccc(N4CCCC(C(F)(F)F)C4)nn23)c1` (stereo not shown) [Compound 901]: under “Trp assay”, the “Trp EC1.5 (μM)” value is reported as “A (EC1.5<1 μM)”. In addition, the Emax under setting [2] was at least 350%.

With `O=C(Nc1ccncn1)c1cnc2ccc(N3CC[C@H](F)C3)nn12` [Compound 851], the “Trp EC1.5 (μM)” value (Trp assay) is on record as “B (EC1.5 1-25 μM)”. Moreover, under setting [2], the Emax was below 350%.

Turning to `O=C(Nc1ccc(C(F)(F)F)nc1)c1cnc2ccc(N3CC[C@H](F)C3)nn12` [Compound 919], where the note is “Trp assay”, the “Trp EC1.5 (μM)” value was “C (EC1.5>25 μM)”. For the same compound, the Emax under setting [2] is below 350%.

On to `O=C(Nc1cncc(F)c1)c1cnn2ccc(N3CCCC(C(F)(F)F)C3)nc12` (stereo not shown) [Compound 1009], for which the Emax under setting [1] was at least 350%.

`CC1(C)CCN(c2ccc3ncc(C(=O)Nc4cccnn4)n3n2)C1` [Compound 955]: the Emax under setting [2] was at least 350%.

For `O=C(Nc1ccncc1F)c1cnc2ccc(N3CC(F)(F)C3)nn12` [Compound 915], the “Trp EC1.5 (μM)” value (Trp assay) is given as “C (EC1.5>25 μM)”. Further, the Emax under setting [2] is below 350%.

`O=C(Nc1cncc(F)c1)c1cnc2ccc(N3CCC(F)(F)CC3)nn12` [Compound 929]: the “Trp EC1.5 (μM)” value (Trp assay) is “B (EC1.5 1-25 μM)”. Besides, the Emax under setting [2] is at least 350%.

In the case of `Cc1cncc(NC(=O)c2cnn3ccc(N4CCC(C(F)(F)F)CC4)nc23)c1` [Compound 1073], under setting [1], the Emax is at least 350%.

`O=C(Nc1cccnc1)c1cnn2ccc(N3CCC(C(F)(F)F)C3)nc12` (stereo not shown) [Compound 1012]: under setting [1], the Emax was at least 350%.

Consider `O=C(Nc1cncnc1)c1cnc2ccc(N3CC[C@H](F)C3)nn12` [Compound 888], for which, under “Trp assay”, the “Trp EC1.5 (μM)” value was “C (EC1.5>25 μM)”. Further, the Emax under setting [2] was below 350%.

In the case of `Cc1nc2ccc(N3CC[C@H](F)C3)nn2c1C(=O)Nc1ccncc1F` [Compound 846], the “Trp EC1.5 (μM)” value (Trp assay) is recorded as “A (EC1.5<1 μM)”. Also, the Emax under setting [2] was below 350%.

Regarding `Cc1nc2ccc(N3CC[C@H](N(C)C)C3)nn2c1C(=O)Nc1cnccn1` [Compound 871], the “Trp EC1.5 (μM)” value (Trp assay) is “B (EC1.5 1-25 μM)”. The Emax under setting [2] is below 350%.

Consider `Cc1nc2ccc(N3CC[C@H](N(C)C)C3)nn2c1C(=O)Nc1cccnn1` [Compound 880], for which, where the note is “Trp assay”, the “Trp EC1.5 (μM)” value is “B (EC1.5 1-25 μM)”. Also, under setting [2], the Emax is below 350%.

As for `C[C@@H]1CN(c2ccc3ncc(C(=O)Nc4cncc(F)c4)n3n2)CCO1` [Compound 1004], under setting [1], the Emax is at least 350%.

Regarding `O=C(Nc1nc2c(s1)CCCC2)c1cnc2ccc(N3CCCC3C(F)(F)F)nn12` (stereo not shown) [Compound 1096], the Emax under setting [1] was at least 350%.

For `CC1(C)CCN(c2ccc3ncc(C(=O)Nc4ccncc4F)n3n2)C1` [Compound 960], the Emax under setting [2] is below 350%.

Consider `CN(C)[C@H]1CCN(c2ccc3ncc(C(=O)Nc4cccnc4)n3n2)C1` [Compound 868], for which the “Trp EC1.5 (μM)” value (Trp assay) is “B (EC1.5 1-25 μM)”. Also, the Emax under setting [2] is below 350%.

With `C[C@H]1CCCN1c1ccc2ncc(C(=O)Nc3cccnn3)n2n1` [Compound 1055], under setting [1], the Emax was at least 350%.

Turning to `CO[C@H]1CCN(c2ccc3ncc(C(=O)Nc4ccccn4)n3n2)C1` [Compound 933], under “Trp assay”, the “Trp EC1.5 (μM)” value is on record as “B (EC1.5 1-25 μM)”. In addition, the Emax under setting [2] is below 350%.

Take `O=C(Nc1cnccn1)c1cnc2ccc(N3CCC(F)(F)C3)nn12` [Compound 905]: the “Trp EC1.5 (μM)” value (Trp assay) is “B (EC1.5 1-25 μM)”. Moreover, the Emax under setting [2] was below 350%.

As for `CO[C@H]1CCN(c2ccc3ncc(C(=O)Nc4ccncc4F)n3n2)C1` [Compound 936], the “Trp EC1.5 (μM)” value (Trp assay) is listed as “B (EC1.5 1-25 μM)”. Further, the Emax under setting [2] was below 350%.

For the compound `O=C(Nc1ccncn1)c1cnc2ccc(N3CCC(F)(F)C3)nn12` [Compound 906], where the note is “Trp assay”, the “Trp EC1.5 (μM)” value is “B (EC1.5 1-25 μM)”. In addition, the Emax under setting [2] was below 350%.

`COc1nccc(NC(=O)c2cnn3ccc(N4CCC[C@@H]4C(F)(F)F)nc23)n1` [Compound 1080]: under setting [1], the Emax is at least 350%.

Turning to `Cc1nc2ccc(N3CC[C@H](N(C)C)C3)nn2c1C(=O)Nc1cccnc1` [Compound 877], the “Trp EC1.5 (μM)” value (Trp assay) is on record as “B (EC1.5 1-25 μM)”. The Emax under setting [2] was below 350%.

As to `O=C(Nc1cnc2ccc(-c3ccccc3OC(F)(F)F)nn12)c1cnccn1` [Compound 314], the “Trp EC1.5 (μM)” value (Trp assay) is recorded as “B (EC1.5 1-25 μM)”. Besides, the Emax under setting [2] was below 350%.

In the case of `CN1CCN(c2ccc3ncc(C(=O)Nc4ccncc4F)n3n2)CC1` [Compound 949], the Emax under setting [2] is below 350%.

As to `Cn1cc2ccc(NC(=O)c3cnc4ccc(N5CCCC5C(F)(F)F)nn34)cc2n1` (stereo not shown) [Compound 1092], the Emax under setting [1] is at least 350%.

Source of the values: patent US9957271B2, “Substituted bicyclic aza-heterocycles and analogues as sirtuin modulators” (GlaxoSmithKline, LLC, priority 2012, dated 2018).
